What was measured:
C57BL/6 mice = experiment: Two-week oral toxicity study; assay type: in vivo; details: 120 mg/kg PO, two weeks
Description: Given the potential usefulness of oral administration in terms of cost and convenience, we elected to pursue this route in subsequent toxicity and efficacy pre-clinical studies. Initially, we dosed C57BL/6 mice with 120 mg/kg PO (dose chosen based on a dose escalation trial) for two weeks and analyzed the effect on complete blood counts, electrolytes, hepatic and renal function, body mass and the gross and histological appearance of the brain, heart, lungs, liver, kidneys and spleen. […] We confirmed that 5MPN caused a G1 arrest in LLC cells in vitro similar to H460 cells (Figure 4G) and then examined the number of Ki67-positive cells since Ki67 expression correlates with later S and G2 phases of the cell cycle.

H460 cells = experiment: Apoptosis by flow cytometry (annexin V / propidium iodide); assay type: cell-based, human; details: 10μM 5MPN
Description: To measure apoptosis, cells were stained with annexin V and propidium iodide and examined as previously described. For cell cycle experiments, cells were detached, washed with cold PBS and fixed in 70% ethanol at 4°C for 30 minutes. The cells then were pelleted by centrifugation, resuspended in PBS containing PI and RNase A, incubated at 37°C in the dark for 30 minutes and analyzed by flow cytometry (BD FACSCalibur). Data were analyzed using FlowJo software (TREE STAR Inc.). Results were calculated as the mean ± SD of three experiments and data shown are representative of three independent experiments.

recombinant PFK-1 = experiment: PFK-1 kinase activity; assay type: biochemical; details: 10 μM
[1] = tested on: Lewis lung carcinomas (LLC); experiment: Lewis lung carcinoma tumor growth in syngeneic mice; assay type: in vivo, C57BL/6 mice; details: 120 mg/kg daily by gavage
Description: For xenograft studies, LLC or H460 cells collected from exponential growth phase culture were washed and resuspended in PBS. Groups of female C57BL/6 mice were injected with LLC cells (n=10 per group, s.c., 1×10^6 cells) and groups of female BALB/c athymic mice (Charles River) were injected with H460 cells (n=10 per group, s.c, 5 × 10^6 cells). Tumor masses were determined in a blinded fashion with Vernier calipers using the formula: mass (mg) = (width, mm)^2 X (length, mm)/2 as previously described. When tumor masses were 150-200 mg, mice were randomized to daily DMSO or 5MPN (in 30% Captisol, 100 μl, by gavage). Tumor measurements and body weights were followed daily. All data are expressed as the mean ± SD of two experiments. Statistical significance was assessed by the two-sample t test (independent variable).

human recombinant PFKFB3 = human recombinant PFKFB3 (Homo sapiens, UniProt Q16875); experiment: In vitro kinase assay with purified recombinant human PFKFB3; assay type: biochemical; details: 10 μM
Description: Figure 1 Compound 5MPN inhibits recombinant PFKFB4 enzyme activity A. Representation of the 5MPN molecule docked in the crystal structure of rat testes PFKFB4. 5MPN is shown in thicker stick representation than the surrounding protein residues. B. Molecular structure of 5MPN (MW, 305.3 Da). In vitro kinase assays using purified recombinant human PFKFB4 were performed as described in the presence or absence of 0.1, 1 or 10 μM 5MPN. Michaelis-Menten C. and Lineweaver-Burk double reciprocal D. plots examining PFKFB4 enzyme activity as a function of F6P concentration (0 - 2000 μmol/L) are shown. E. In vitro kinase assays using purified recombinant human PFKFB3 were performed as described in the presence or absence of 0.1, 1 or 10 μM 5MPN and the Michaelis-Menten plot examining PFKFB3 enzyme activity as a function of F6P concentration (0 - 400 μmol/L) is shown. Data shown are representative of three independent experiments. […] The activity of 5MPN against 97 kinases was examined using a commercially available active-site dependent competition binding assay core service (KINOMEscanEDGE) that quantifies the capacity of test agents to compete with an immobilized, active-site directed ligand using a DNA-tagged kinase and immobilized ligand and compound.

glycolysis in H460 cells = experiment: Glycolysis assay (3H2O from 5-[3H]glucose); assay type: cell-based, human; details: 10 μM, 6-72 hours
Description: Cells growing in 6-well plates were incubated in 500 μl of complete medium containing 1 μCi of 5-[^3H]glucose per well for 60 min in 5% CO2 at 37°C. Media was collected, ^3H2O formed via glycolysis from the 5-[^3H]glucose measured and counts normalized as previously described. All data are expressed as the mean ± SD of three experiments. Statistical significance was assessed by the two-sample t test (independent variable).

[2] = Pharmacokinetic profile after IV and oral administration; assay type: in vivo; details: mouse, female C57BL/6 mice, plasma
Description: The pharmacokinetic profile was determined in female C57BL/6 mice (Charles River Laboratories) following IV and oral administration of 5MPN. Using only female mice lowered the animal numbers required for meaningful results without issues of potential gender differences in exposure. Eight time points (n=3 per time point) were used to determine indicated PK parameters calculated using WinNonLin v5.0. Plasma samples were extracted using acetonitrile and analyzed by LC/MS-MS using a PhenomexSynergi Polar-RP 4micron 50×2.0 mm column eluted with a biphasic mobile phase (0.5% formic acid in acetonitrile and water).

[3] = tested on: intratumoral F2,6BP, LLC xenografts; experiment: Intratumoral F2,6BP in LLC tumors; assay type: in vivo, C57BL/6 mice; details: after 10 days of treatment, one hour after dose by gavage
Description: Cells or tissues were prepared as previously described and F2,6BP content measured using a coupled enzyme reaction following the method of Van Schaftingen et al and normalized to total cellular protein measured by the bicinchoninic acid assay (Thermo Scientific). All data are expressed as the mean ± SD of three experiments. Statistical significance was assessed by the two-sample t test (independent variable).
At the end of the experiment, one hour after a single dose of DMSO or 5MPN, animals were euthanized, tumors removed and sections fixed in 10% formaldehyde for immunohistochemistry or snap-frozen in liquid nitrogen for analyses. Subsets of tumor-bearing mice (n=3) were administered a single dose of either DMSO or 5MPN one hour prior to imaging then injected i.p. with 2-[^18F]-fluoro-2-deoxyglucose (FDG, 150μCi, 100 μl) and, 45 min after FDG injection, were anesthetized with 2% isoflurane in oxygen and transferred to a R-4 Rodent Scanner (CTI Concorde Microsystems) micro-positron emission tomograph to capture images as previously described. Regions of interest in the tumors and cerebellum were quantified in quadruplicate and expressed as the mean ± SD of the ratio of tumor:cerebellar FDG uptake. Animal experiments were approved by the University of Louisville Institutional Animal Care and Use Committee.

Sequence of human recombinant PFKFB3 (Q16875 whole entry): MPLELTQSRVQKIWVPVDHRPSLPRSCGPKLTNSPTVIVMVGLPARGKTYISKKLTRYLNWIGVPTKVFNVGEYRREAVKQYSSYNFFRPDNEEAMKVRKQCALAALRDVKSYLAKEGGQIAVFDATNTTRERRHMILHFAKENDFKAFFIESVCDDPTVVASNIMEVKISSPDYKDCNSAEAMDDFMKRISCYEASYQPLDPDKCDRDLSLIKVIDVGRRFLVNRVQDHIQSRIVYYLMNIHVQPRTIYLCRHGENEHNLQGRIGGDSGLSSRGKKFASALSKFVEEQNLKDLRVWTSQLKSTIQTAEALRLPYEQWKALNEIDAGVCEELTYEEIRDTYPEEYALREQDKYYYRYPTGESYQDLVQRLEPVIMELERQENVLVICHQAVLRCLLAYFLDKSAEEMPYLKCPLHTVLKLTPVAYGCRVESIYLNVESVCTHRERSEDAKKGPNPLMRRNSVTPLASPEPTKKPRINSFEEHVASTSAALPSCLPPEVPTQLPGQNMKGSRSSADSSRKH

COc1cccc2c(NCCCCCO[N+](=O)[O-])ccnc12 [Compound 5MPN, 5-(n-(8-methoxy-4-quinolyl)amino)pentyl nitrate]
signs of toxicity (blood counts, electrolytes, hepatic and renal function, body mass, organ histology, behavior) (C57BL/6 mice): no signs of toxicity | increase in apoptotic cells (H460 cells): only a minimal increase | inhibition of PFK-1 kinase activity (recombinant PFK-1): no inhibition of kinase activity | tumor growth ([1]; LLC in syngeneic C57BL/6 mice): suppressed the growth | body weight ([1]; LLC-bearing C57BL/6 mice): without affecting body weight | inhibition of PFKFB3 kinase activity (human recombinant PFKFB3): no inhibition of kinase activity | effect on glycolysis (glycolysis in H460 cells): reduced | AUC(0-inf) ([2]; iv, 2 mg/kg, I.V.): 114 ng·h/mL | AUC(0-t) ([2]; iv, 2 mg/kg, I.V.): 111 ng·h/mL | C0 ([2]; iv, 2 mg/kg, I.V.): 249 ng/mL | half-life ([2]; iv, 2 mg/kg, I.V.): 0.387 h | Vd ([2]; iv, 2 mg/kg, I.V., read-out: Vss): 8.48 L/kg | MRT ([2]; iv, I.V.): 0.485 h | clearance ([2]; iv, I.V.): 291 mL/min/kg | MRT ([2]; po, 10 mg/kg, P.O): 2.31 h | AUC(0-inf) ([2]; po, P.O): 234 ng·h/mL | AUC(0-t) ([2]; po, P.O): 225 ng·h/mL | Cmax ([2]; po, P.O): 98.7 ng/mL | bioavailability ([2]; po, P.O): 40.9% | half-life ([2]; po, P.O): 1.67 h | intratumoral F2,6BP [3]: marked reduction

Reference: PMC4627231, “Targeting the sugar metabolism of tumors with a first-in-class 6-phosphofructo-2-kinase (PFKFB4) inhibitor” (Oncotarget, 2015)
